Common to all, as to parameters: species or system porcine
Assay [1] has as its target Amyloid-beta(1-40) binding to heparin (HS-GAG) (Homo sapiens, UniProt P05067). In words: Inhibition of Amyloid-beta(1-40) binding to immobilized heparin-BSA (ELISA). The settings on record: for inhibition at 30 µM: read-out: Abeta40/Heparin Activity (% inhibition class). In general terms: ELISA stands for enzyme-linked immunosorbent assay.
Assay [2] addresses T1, Amyloid-beta(1-42) oligomer binding to heparin (HS-GAG) (Homo sapiens, UniProt P05067).
T1 construct: Beta-amyloid (1-42) was purchased from rPeptide (Cat. No. A1163); purchased rPeptide A1163
In words: Inhibition of Amyloid-beta(1-42) oligomer binding to immobilized heparin-BSA (ELISA). The settings on record: Abeta(1-42) oligomers; for inhibition at 30 µM: 30 μM compound, heparin-BSA, read-out: Abeta42/Heparin Activity (% inhibition class).

The target in assay [3] is TDP-43 binding to heparin (HS-GAG) (Homo sapiens, UniProt Q13148). In words: Inhibition of TDP-43 binding to immobilized heparin-BSA (ELISA). The conditions noted are these: for inhibition at 30 µM: read-out: TDP43/Heparin Activity (% inhibition class).
TDP-43 binding to heparin (HS-GAG), sequence (Q13148 whole entry): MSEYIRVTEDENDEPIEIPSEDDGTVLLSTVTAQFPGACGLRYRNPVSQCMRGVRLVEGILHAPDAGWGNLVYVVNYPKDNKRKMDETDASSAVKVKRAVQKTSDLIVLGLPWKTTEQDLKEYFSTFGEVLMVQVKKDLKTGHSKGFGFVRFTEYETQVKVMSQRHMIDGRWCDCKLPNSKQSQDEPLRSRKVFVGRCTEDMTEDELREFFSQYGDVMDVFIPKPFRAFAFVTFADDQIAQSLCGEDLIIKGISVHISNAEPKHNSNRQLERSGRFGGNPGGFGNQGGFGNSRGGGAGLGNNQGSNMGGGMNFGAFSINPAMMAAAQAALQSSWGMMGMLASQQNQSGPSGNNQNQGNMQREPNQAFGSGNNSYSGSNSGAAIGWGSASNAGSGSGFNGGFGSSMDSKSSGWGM

Molecules are shown by their SMILES. Where a name gives a salt, the structure may show the parent alone. Read-outs that look alike come from different tables or passages of the source.

T1 sequence (P05067 672-713): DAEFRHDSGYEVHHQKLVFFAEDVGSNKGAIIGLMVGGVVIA
Amyloid-beta(1-40) binding to heparin (HS-GAG), sequence (P05067 672-711): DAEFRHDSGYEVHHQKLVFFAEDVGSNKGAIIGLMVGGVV

As to `C[n+]1ccn(-c2ccc(Nc3ncnc4cc(Cl)ccc34)cn2)c1` [Compound 43, 1-(5-((7-chloroquinazolin-4-yl)amino)pyridin-2-yl)-3-methyl-1H-imidazol-3-ium iodide phosphoric acid salt], the inhibition at 30 µM in assay [1], in assay [2] and in assay [3] was under 30% throughout.
With `Clc1ccc2c(Nc3ccc(-n4cncn4)nc3)ccnc2c1` [Compound 44, N-(6-(1H-1,2,4-triazol-1-yl)pyridin-3-yl)-7-chloroquinolin-4-amine], the IC50 in assay [1] (Abeta40/Heparin Activity (IC-50), Abeta(1-40), co-incubation on heparin-BSA plates) stood at 19.3 µM; in assay [2] (co-incubation on heparin-BSA plates, read-out: Abeta42/Heparin Activity (IC-50)), 35.7 µM; in assay [3] (TDP43/Heparin Activity (IC-50), TDP-43, heparin-BSA), 6.54 µM.
Regarding `CN(C)Cc1cc(Nc2ccnc3cc(Cl)ccc23)ccn1` [Compound 45, 7-chloro-N-(2-((dimethylamino)methyl)pyridin-4-yl)quinolin-4-amine], the inhibition at 30 µM is under 30% in assay [1] (30 μM compound, Abeta(1-40), heparin-BSA); under 30% in assay [2]; under 30% in assay [3].

For the origin of these results see patent publication US20240398783A1, “Compounds and Pharmaceutical Compositions Comprising Inhibitors of Amyloid Peptide Interactions with Glycosaminoglycans, Methods of Treatment and Use Thereof” (Gismo Therapeutics, Inc., priority 2021, published 2024).
